Reference: US20070077607A1, “Novel screening method” (priority 2003, published 2007)
Where no end group is shown, it is not given here.

Assays:
[1] = system: tTG-null mouse dermal fibroblasts (MDF-TG−/−); experiment: Anoikis quantification by TUNEL (flow cytometry and in situ microscopy); assay type: cell-based; details: RGD peptide, ~15-hour, flow cytometry
Description: (§1) For fluorochrome labelling of DNA strand breaks, 6×10^5 cells were seeded in duplicate in 9.6 cm^2-wells pre-coated with FN or tTG-FN in the presence or absence of RGD peptide. After 15-hour incubation at 37° C. in a 5% CO2 atmosphere, all cells (adhered and non-adhered) were collected, washed twice in PBS pH 7.4, resuspended at the final concentration of 1.2×10^7 cells/ml and fixed in suspension by addition of one volume of 4% (w/v) PFM in PBS, pH 7.4 for 1 hour at room temperature. […] The fluorescence intensity measured by flow cytometry using a Beckman Coulter EPICS XL. Cells were collected and data stored using the SYSTEM II software and analysed using the WinMDI2.8 software. DNA fragmentation was also detected by in situ analysis of nuclei following TUNEL using a confocal fluorescent microscope (Leica). […] For quantification, the Leica LCS software was used to acquire three random images per well for a total of 9 images per experimental sample using a fixed protocol (with constant PMT and section-depth setting). Data are expressed as mean number of apoptotic cells per well. […] Data are expressed as absorbance values at 492 nm after subtraction of values at […] given by the unmetabolised salt.

HOB cells [2] = experiment: Cell adhesion assay (cell attachment and cell spreading), HOB cells; assay type: cell-based, human
Description: To evaluate cell attachment and cell spreading exponentially growing cells were detached from substratum by trypsinisation (0.25% (v/v) trypsin in 5 mM EDTA), collected into medium containing a ˜7% (V/V) final concentration of FCS, washed twice with medium without serum and then plated (2×10^4cells/well) onto FN-coated 96-well plates with and without further immobilisation of tTG. After a maximum of 20-minute incubation (to minimise the effect of any endogenous secreted proteins) at 37° C. in a 5% CO2 atmosphere, cells were fixed in 3.7% (w/v) paraformaldehyde in PBS pH 7.4, permeabilised in 0.1% (v/v) Triton X-100 and stained with May Grunwald and Giemsa stain (Jones et al 1997, Verderio et al. 2000). In some cases cells were pre-treated for 15 hours with 1 mM cycloheximide before plating to rule out any effects of endogenous secreted adhesion molecules. Digital images of three non-overlapping fields covering the central portion of each well was captured using a video digital camera (Olympus DP10) and examined using the Image Analysis programme Scion Image (National Institute of Health, USA). A total of at least nine images of separate fields per sample were examined for a total of at least 900 cells in the FN control. The number of cell particles in each field was measured by thresholding and particle analysis setting a minimum particle size of 50 pixels. Spread cells were analysed and quantified by “density slicing” and particle analysis.
Adhesion of cells to FN was decreased by pre-incubation with RGD synthetic peptide (50 μg/ml, ˜75 ∝M, 100 μg/ml ˜150 μM, or 200 μg/ml ˜300 μM) or function blocking anti-integrin antibodies 40 μg/ml anti-β1 integrin (JB1A), 30 μg/ml anti-α5 integrin (P1D6). Detached cells (as described above) were pre-incubated in suspension (2×10^5cells/ml) in serum-free medium containing either RGD peptide or anti-integrins antibodies at 37° C. for 10 minutes in 5% CO2 atmosphere, and then seeded in the presence of the peptides.

Swiss 3T3 fibroblasts = experiment: Cell adhesion assay (cell attachment and cell spreading), Swiss 3T3 fibroblasts; assay type: cell-based, mouse; details: 100 μg/ml RGD peptide
Description: To evaluate cell attachment and cell spreading exponentially growing cells were detached from substratum by trypsinisation (0.25% (v/v) trypsin in 5 mM EDTA), collected into medium containing a ˜7% (V/V) final concentration of FCS, washed twice with medium without serum and then plated (2×10^4cells/well) onto FN-coated 96-well plates with and without further immobilisation of tTG. After a maximum of 20-minute incubation (to minimise the effect of any endogenous secreted proteins) at 37° C. in a 5% CO2 atmosphere, cells were fixed in 3.7% (w/v) paraformaldehyde in PBS pH 7.4, permeabilised in 0.1% (v/v) Triton X-100 and stained with May Grunwald and Giemsa stain (Jones et al 1997, Verderio et al. 2000). In some cases cells were pre-treated for 15 hours with 1 mM cycloheximide before plating to rule out any effects of endogenous secreted adhesion molecules. Digital images of three non-overlapping fields covering the central portion of each well was captured using a video digital camera (Olympus DP10) and examined using the Image Analysis programme Scion Image (National Institute of Health, USA). […] The number of cell particles in each field was measured by thresholding and particle analysis setting a minimum particle size of 50 pixels. Spread cells were analysed and quantified by “density slicing” and particle analysis. […]

[3] = system: BRIN-BD11 (clonal β-cells); experiment: Cell attachment and spreading of BRIN-BD11 cells; assay type: cell-based, rat; details: excess RGD peptide
Description: A novel insulin-secreting cell line (BRIN-BD11), which was established after electrofusion of RINm5F cells with New England Deaconess Hospital rat pancreatic islet cells, was grown confluent in RPMI 1640 media, supplemented with 10% FCS, 200 u/ml Penicillin, 200 ug/ml Streptomycin and L-Glutamine at 2 mM. The wells of microtitre plates were coated with FN (5 μg/ml) overnight at 4° C. The assigned wells were washed once with 50 mM Tris-HCl, pH 7.4 and then incubated with 20 μg/ml tTG solution (dissolved in PBS containing 2 mM EDTA pH 7.4) for 1 hour at 37° C. Meanwhile, exponentially growing cells were trypsinised and collected into medium containing approximately 7% (v/v) foetal calf serum. After a five-minute centrifugation at 300×g the cell pellet was washed twice in serum free medium to remove the traces of serum proteins. […] The cell attachment and spreading were quantified using the Scion image analysis programme, which is developed at the National Institute of Health (Washington DC, USA). The number of cells per image was assessed through threshold and particle analysis settings with a minimum particle size of 50 pixels. […] These were quantified by density slicing and particle analysis settings. […]

FAK = FAK tyrosine phosphorylation (western blot, phospho(Tyr397)-FAK); assay type: cell-based, human; details: HOB; RGD peptide (100 μg/ml)
Description: A cell suspension of 2×10^5 cells/ml was seeded in 9.6 cm^2-wells (6×10^5 cells/well) pre-coated with FN, tTG-FN or heat-inactivated 3% BSA (w/v) in PBS pH 7.4. After 30-minute incubation at 37° C. in a 5% CO2 atmosphere, the supernatant medium was removed, and non-adhered cells collected by spinning at 270 g for 5 minutes and then lysed in reducing Laemmli sample buffer at 95° C. for 5 minutes. The layer of adhered cells was scraped and similarly lysed (200 μl/well). The lysates of adhered and non-adherent cells were pooled together, fractionated (¼ aliquot) on 8% SDS-PAGE and then western blotted. Blots were incubated with a polyclonal rabbit anti-human phospho(Tyr 397)-FAK (1/2000), for ˜15 hours at +4° C. followed by anti-rabbit IgG peroxidase-conjugate (1/2000) for 2 hours at 21° C. Bands were detected by chemi-luminescence (Amersham), following manufacturer instructions. For re-probing with a control antibody, blots were treated with stripping buffer [50 mM Tris.HCl pH 6.7, 100 mM βME, 2% SDS (w/v)] for 30 minutes at 50° C. and then incubated with a monoclonal anti-tubulin antibody (1/2000), followed by peroxidase-conjugate anti-mouse IgGs/(1/1000).

HOB cells [4] = assay type: cell-based, human; details: FN+RGD
[5] = system: tTG-null mouse dermal fibroblasts (MDF-TG−/−); experiment: Cell viability (XTT) assay; assay type: cell-based; details: RGD peptide ~15 hours
Description: as §1

GRGDTP [RGD peptide, GRGDTP] was tested, and the “apoptotic cells among total fibroblasts grown on FN” value [1] was ~24%, the “cell spreading on FN” value (HOB cells [2]; 100 μg/ml RGD peptide) was 10-50 % of control value and the “cell attachment on FN” value (HOB cells [2]; 50 and 100 μg/ml RGD peptides) was 30-50 % of control values on FN. The “inhibition of cell attachment on the 70 kd fragment” value (HOB cells [2]; RGD peptide (100 μg/ml)) was ~40%, the “inhibition of cell spreading on the 70 kd fragment” value (HOB cells [2]; RGD peptide (100 μg/ml)) was ~40% and the “cell attachment on FN” value (Swiss 3T3 fibroblasts) was 30-40 % of controls. The “cell spreading on FN” value (Swiss 3T3 fibroblasts) was 30-40 % of controls, the “cell attachment and spreading on FN” value [3] was “decreased” and the “tyrosine phosphorylation of FAK on FN” value (FAK) was ~25 % of level in control cells on. For the same substance, the “actin stress fibre organisation on FN” value (HOB cells [4]) was “actin was not organised into stress fibres” and the “decrease of cell viability on FN versus control RAD peptide” value [5] was “around 20%”.
